Data as given in PubChem BioAssay AID330 (DTP/NCI, 2004).
Toxic doses and inconclusive results are not listed.

Test system: P388 leukemia ip, CD2F1 mice, survival T/C
Experiment: NCI In Vivo Anticancer Drug Screen. Data for tumor model P388 Leukemia (intraperitoneal) in CD2F1 (CDF1) mice
Details: endpoint: median survival time, higher = longer survival
Method in brief: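 Mice carrying the transplanted tumor received test compound or vehicle. Survival was recorded in each group, and the value is the treated-group measurement divided by that of the vehicle-treated control group.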

[1] = dose: 25.0 mg/kg/injection, schedule: Q01DX001 (ip), vehicle: Klucel (hydroxypropylcellulose) (HPC)
[2] = dose: 50.0 mg/kg/injection, schedule: Q01DX005 (ip), vehicle: saline with Tween-80
[3] = dose: 100.0 mg/kg/injection, schedule: Q01DX005 (ip), vehicle: saline with Tween-80
[4] = dose: 200.0 mg/kg/injection, schedule: Q01DX005 (ip), vehicle: saline with Tween-80
[5] = dose: 50.0 mg/kg/injection, schedule: Q01DX005 (ip), vehicle: Klucel (hydroxypropylcellulose) (HPC)
[6] = dose: 100.0 mg/kg/injection, schedule: Q01DX005 (ip), vehicle: Klucel (hydroxypropylcellulose) (HPC)
[7] = dose: 12.5 mg/kg/injection, schedule: Q01DX009 (ip), vehicle: water
[8] = dose: 50.0 mg/kg/injection, schedule: Q01DX009 (ip), vehicle: water
[9] = dose: 100.0 mg/kg/injection, schedule: Q01DX009 (ip), vehicle: water
[10] = dose: 50.0 mg/kg/injection, schedule: Q01DX005 (ip), vehicle: saline

With `COc1ccc(/C(O)=C/c2nc3cccc([N+](=O)[O-])c3[nH]c2=O)cc1` the T/C (dose: 15.0 mg/kg/injection, schedule: Q01DX005 (ip), vehicle: saline with Tween-80) was 91 % of control, the T/C (dose: 30.0 mg/kg/injection, schedule: Q01DX005 (ip), vehicle: saline with Tween-80) was 91 % of control and the T/C (dose: 60.0 mg/kg/injection, schedule: Q01DX005 (ip), vehicle: saline with Tween-80) was 86 % of control.
In the case of `COc1cc(OC)c2c[n+](C)c3c4cc(OC)c(OC)cc4ccc3c2c1`, the T/C (dose: 20.0 mg/kg/injection, schedule: Q01DX009 (ip), vehicle: saline with Tween-80) is reported as 161 % of control and the T/C (dose: 40.0 mg/kg/injection, schedule: Q01DX009 (ip), vehicle: saline with Tween-80) is reported as 169 % of control.
In the case of `COc1ccc(N=Nc2ccc(N(CCCl)CCCl)cc2)cc1`, the T/C [1] is reported as 106 % of control, the T/C (dose: 50.0 mg/kg/injection, schedule: Q01DX001 (ip), vehicle: Klucel (hydroxypropylcellulose) (HPC)) is reported as 108 % of control and the T/C (dose: 100.0 mg/kg/injection, schedule: Q01DX001 (ip), vehicle: Klucel (hydroxypropylcellulose) (HPC)) is reported as 110 % of control.
With `c1ccc([S][Pb]([c]2ccccc2)([c]2ccccc2)[c]2ccccc2)cc1` the T/C (dose: 6.25 mg/kg/injection, schedule: Q01DX001 (ip), vehicle: Klucel (hydroxypropylcellulose) (HPC)) was 96 % of control, the T/C (dose: 12.5 mg/kg/injection, schedule: Q01DX001 (ip), vehicle: Klucel (hydroxypropylcellulose) (HPC)) was 122 % of control and the T/C [1] was 114 % of control.
In the case of `CC(NC(=O)C(C)Oc1ccc(Cl)cc1Cl)C(=O)O` (configuration not stated), the T/C [2] is reported as 101 % of control, the T/C [3] is reported as 99 % of control and the T/C [4] is reported as 100 % of control.
For `C=CCC1(CCC)C(=O)NC(=S)NC1=O`, the T/C (dose: 50.0 mg/kg/injection, schedule: Q01DX009 (ip), vehicle: saline with Tween-80) was 110 % of control, the T/C (dose: 100.0 mg/kg/injection, schedule: Q01DX009 (ip), vehicle: saline with Tween-80) was 117 % of control and the T/C (dose: 200.0 mg/kg/injection, schedule: Q01DX009 (ip), vehicle: saline with Tween-80) was 115 % of control.
For `CS(=O)(=O)C(CCC(=O)c1ccc([N+](=O)[O-])cc1)C(=O)c1ccccc1` (configuration not stated), the T/C [5] was 98 % of control, the T/C [6] was 96 % of control and the T/C (dose: 200.0 mg/kg/injection, schedule: Q01DX005 (ip), vehicle: Klucel (hydroxypropylcellulose) (HPC)) was 104 % of control.
With `O=C1C=CC(=O)N1c1cccc2c1CCCC2` the T/C (dose: 6.25 mg/kg/injection, schedule: Q01DX009 (ip), vehicle: saline with Tween-80) was 105 % of control and the T/C (dose: 12.5 mg/kg/injection, schedule: Q01DX009 (ip), vehicle: saline with Tween-80) was 114 % of control.
`Nc1cc2nc3ccccc3nc2cc1O` was tested, and the T/C [2] was 90 % of control, the T/C [3] was 90 % of control and the T/C [4] was 90 % of control.
With `COc1cccc(C(O)c2ccncc2C)c1OC` (configuration not stated) the T/C [7] was 100 % of control, the T/C (dose: 25.0 mg/kg/injection, schedule: Q01DX009 (ip), vehicle: water) was 99 % of control and the T/C [8] was 100 % of control. The T/C [9] was 99 % of control and the T/C (dose: 200.0 mg/kg/injection, schedule: Q01DX009 (ip), vehicle: water) was 99 % of control.
`O=C1C=CC(=Nc2cc(Cl)c(O)c(Cl)c2)C=C1Cl` was tested, and the T/C (dose: 12.5 mg/kg/injection, schedule: Q01DX005 (ip), vehicle: saline) was 96 % of control, the T/C (dose: 25.0 mg/kg/injection, schedule: Q01DX005 (ip), vehicle: saline) was 100 % of control and the T/C [10] was 93 % of control.
For `C1CN1CN1CC1`, the T/C [5] was 102 % of control and the T/C [6] was 99 % of control.
`CCCc1cc(=O)[nH]c(Sc2ccc([N+](=O)[O-])cn2)n1` was tested, and the T/C (dose: 3.12 mg/kg/injection, schedule: Q01DX005 (ip), vehicle: Klucel (hydroxypropylcellulose) (HPC)) was 101 % of control, the T/C (dose: 6.25 mg/kg/injection, schedule: Q01DX005 (ip), vehicle: Klucel (hydroxypropylcellulose) (HPC)) was 101 % of control and the T/C (dose: 12.5 mg/kg/injection, schedule: Q01DX005 (ip), vehicle: Klucel (hydroxypropylcellulose) (HPC)) was 106 % of control.
With `O=C(NCCCl)Nc1ccn(C(=O)NCCCl)c(=O)n1` the T/C [2] was 95 % of control and the T/C [3] was 100 % of control.
With `CNC(=O)OCn1cnc(Cl)c1Cl` the T/C [10] was 93 % of control, the T/C (dose: 100.0 mg/kg/injection, schedule: Q01DX005 (ip), vehicle: saline) was 101 % of control and the T/C (dose: 200.0 mg/kg/injection, schedule: Q01DX005 (ip), vehicle: saline) was 102 % of control.
`O=C(O)/C=N/NS(=O)(=O)c1ccccc1` was tested, and the T/C [7] was 113 % of control, the T/C [8] was 153 % of control and the T/C (dose: 75.0 mg/kg/injection, schedule: Q01DX009 (ip), vehicle: water) was 163 % of control. For the same compound, the T/C [9] was 99 % of control.
